According to patent publication US6423720B1, “Pyrimidine compounds and methods for making and using the same” (Duquesne University of the Holy Ghost, priority 2001, dated 2002):
Marks after values point to notes of the source that are not given here.

Tests used:
[1] = biological target: T1, dihydrofolate reductase (DHFR) from rat liver (RL) (Rattus norvegicus, UniProt Q920D2); experiment: Inhibition of dihydrofolate reductase from rat liver (RL DHFR); assay type: biochemical; conditions: for IC50: read-out: RL DHFR Inhibitory Concentration (IC50)
T1 construct: the IC50 value of the DHFR from rat liver (RL); from tissue; host or cells: rat liver
T1 sequence (Q920D2 1-187): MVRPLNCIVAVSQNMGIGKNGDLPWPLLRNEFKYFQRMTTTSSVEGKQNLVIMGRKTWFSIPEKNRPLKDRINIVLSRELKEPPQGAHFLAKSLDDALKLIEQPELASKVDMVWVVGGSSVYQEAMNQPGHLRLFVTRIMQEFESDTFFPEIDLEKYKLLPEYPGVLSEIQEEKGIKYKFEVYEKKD
Text: (§1) The following examples are intended to illustrate the invention, and should not be construed as limiting the invention in any way. Standard test procedures familiar to those skilled in the art were used in the examples, such as those procedures described by Gangjee, A., et al., in “5-Arylthio-substituted 2-amino-4-oxo-6-methyl pyrrolo[2,3-d]pyrimidine antifolates as thymidylate synthase inhibitors and antitumor agents”, J. Med. Chem., Vol. 38, pp. 4495-4502 (1995); “Effect of bridge region variation on antifolate and antitumor activity of classical 5-substituted 2,4-diamino furo [2,3-d]pyrimidines”, J. Med. Chem., Vol. 38, pp. 3798-3805 (1995); and “Novel 2 ,4-diamino-5-substituted-pyrrolo[2,3-d]pyrimidines As Classical and Non-Classical Antifolate Inhibitors of Dihydrofolate Reductases”, J. Med. Chem., Vol. 38, pp. 2158-2165 (Jun. 6, 1995) and references disclosed therein.
(§2) The compounds described in Table 1 were evaluated as inhibitors of dihydrofolate reductase (DHFR) from Toxoplasmosis gondii (Tx) and rat liver (RL). The evaluation of the compounds consisted of determining the IC50 values and selectivity ratios of each compound against Tx DHFR and RL DHFR. The IC50 value is the concentration of a compound required to inhibit the dihydrofolate reductase activity by 50 percent (%). […] The selectivity ratio is a measure of the selectivity of a compound for Tx DHFR and is expressed as the IC50 value of the DHFR from rat liver (RL) divided by the IC50 value of the Tx DHFR. For example, the selectivity ratio of a compound is calculated by the following formula: [formula]

[2] = biological target: T2, dihydrofolate reductase (DHFR) from Toxoplasmosis gondii (Tx) (Toxoplasma gondii, UniProt Q07422); experiment: Inhibition of dihydrofolate reductase from Toxoplasmosis gondii (Tx DHFR); assay type: biochemical; conditions: for Selectivity Ratio: RL DHFR/Tx DHFR: IC50 RL DHFR divided by IC50 Tx DHFR; for IC50: Toxoplasma gondii DHFR, read-out: Tx DHFR Inhibitory Concentration (IC50)
T2 sequence (Q07422 1-610): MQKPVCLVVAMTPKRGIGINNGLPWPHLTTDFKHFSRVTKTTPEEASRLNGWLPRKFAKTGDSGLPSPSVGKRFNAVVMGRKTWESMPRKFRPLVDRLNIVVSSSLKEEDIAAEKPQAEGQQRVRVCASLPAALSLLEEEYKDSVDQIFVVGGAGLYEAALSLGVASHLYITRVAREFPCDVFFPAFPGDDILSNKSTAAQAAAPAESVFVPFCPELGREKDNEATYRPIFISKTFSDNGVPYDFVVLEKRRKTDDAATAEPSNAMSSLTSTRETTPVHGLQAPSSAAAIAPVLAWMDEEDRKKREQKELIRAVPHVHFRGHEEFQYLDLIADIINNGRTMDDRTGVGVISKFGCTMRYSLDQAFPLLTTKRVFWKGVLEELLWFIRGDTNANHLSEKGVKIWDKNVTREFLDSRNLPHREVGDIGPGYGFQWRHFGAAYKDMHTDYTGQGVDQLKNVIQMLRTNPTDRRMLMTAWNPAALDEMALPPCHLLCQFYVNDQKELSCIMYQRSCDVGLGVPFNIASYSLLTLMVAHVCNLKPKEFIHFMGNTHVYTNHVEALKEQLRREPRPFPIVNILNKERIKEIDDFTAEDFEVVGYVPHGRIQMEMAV
Text: as §1, §2

[3] = biological target: T3, DHFR from Pneumocystis carinii (PC) (Pneumocystis carinii, UniProt P16184); experiment: Inhibition of DHFR from Pneumocystis carinii (Pc); assay type: biochemical
T3 sequence (P16184 1-206): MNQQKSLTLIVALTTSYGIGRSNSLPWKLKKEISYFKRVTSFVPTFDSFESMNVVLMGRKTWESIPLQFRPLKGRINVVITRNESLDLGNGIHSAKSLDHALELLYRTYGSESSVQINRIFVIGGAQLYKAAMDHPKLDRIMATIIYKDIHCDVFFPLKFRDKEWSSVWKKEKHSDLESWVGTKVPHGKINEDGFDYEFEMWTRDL

SMILES | IC50 [1] | Selectivity Ratio: RL DHFR/Tx DHFR [2] | IC50 [2] | other results
Nc1nc(N)c(Sc2cccc3ccccc23)c(=O)[nH]1 [Compound 165] | 97.2 µM | 198.4 | 0.49 µM | 
Nc1nc(N)c(Sc2ccc(Cl)cc2)c(=O)[nH]1 [Compound 167] | 19.8 µM | 90.0 | 0.22 µM | 
COc1ccc(OC)c(Sc2c(N)nc(N)[nH]c2=O)c1 [Compound 169] | 28.5 µM | 142.5 | 0.2 µM | 
Nc1nc(N)c(Sc2ccc(C(=O)O)cc2)c(=O)[nH]1 [Compound 170] | 122 µM | 2.3 | 53.8 µM | RL/Pc selectivity ratio ([3]; IC50 RL DHFR divided by IC50 Pc DHFR): 1.4; IC50 ([3]; Pneumocystis carinii DHFR): 89.5 µM
Nc1nc(N)c(Sc2ccccc2Cl)c(=O)[nH]1 [Compound 171] | 4.7 µM | 13.4 | 0.35 µM | 
Nc1nc(N)c(Sc2ccc3ccccc3c2)c(=O)[nH]1 [Compound 174] | 30 µM | 85.7 | 0.35 µM | 
COc1cccc(Sc2c(N)nc(N)[nH]c2=O)c1 [Compound 175] | 53.4 µM | 92.1 | 0.58 µM | 
Nc1nc(N)c(Sc2c(Cl)cccc2Cl)c(=O)[nH]1 [Compound 176] | 17.5 µM | 10.3 | 1.7 µM | 
Nc1nc(N)c(Sc2ccc(Cl)cc2Cl)c(=O)[nH]1 [Compound 177] | 2.3 µM | 16.4 | 0.14 µM | 
Nc1nc(N)c(Sc2ccncc2)c(=O)[nH]1 [Compound 179] | 101 µM | 11.9 | 8.5 µM | 
Nc1nc(N)c(SCc2ccc(Cl)cc2)c(=O)[nH]1 [Compound 180] |  | >3.16# | 16.6 µM | RL DHFR inhibition at 60 μM ([1]; @ 60 μM): 26% @ 60 μM
COc1ccc(Sc2c(N)nc(N)[nH]c2=O)cc1OC [Compound 181] |  | >35.2# | 1.9 µM | inhibition at 67 µM ([1]; @ 67 μM): 19%
Nc1nc(N)c(Sc2cc(Cl)cc(Cl)c2)c(=O)[nH]1 [Compound 184] | 20.2 µM | 74.8 | 0.27 µM | 
Nc1nc(N)c(Sc2ccc([N+](=O)[O-])cc2)c(=O)[nH]1 [Compound 185, 2,4-diamino-6-oxo-5-(4′-nitrophenylthio)pyrimidine] | 15 µM | 55.6 | 0.27 µM | melting point: > 300 °C (dec.)
Nc1nc(N)c(SCc2ccccc2)c(=O)[nH]1 [Compound 187] | 40.7 µM | 7.7 | 5.3 µM | 
Nc1nc(N)c(Sc2ccccn2)c(=O)[nH]1 [Compound 188] | 117 µM | 24.9 | 4.7 µM | 
Nc1nc(N)c(SCc2ccc(Cl)c(Cl)c2)c(=O)[nH]1 [Compound 190] | 24.2 µM | 16.1 | 1.5 µM | 
COc1cccc(CSc2c(N)nc(N)[nH]c2=O)c1 [Compound 191] | 66.8 µM | 10.1 | 6.6 µM | 
Nc1nc(N)c(SCc2ccc(Cl)cc2Cl)c(=O)[nH]1 [Compound 193] | 7 µM | 10 | 0.7 µM | 
Cc1ccc(CSc2c(N)nc(N)[nH]c2=O)cc1 [Compound 194] | 193 µM | 25.4 | 7.6 µM | 
Cc1cccc(CSc2c(N)nc(N)[nH]c2=O)c1 [Compound 196] |  | >7.18 # | 11.5 µM | RL DHFR inhibition at 90 μM ([1]; @ 90 μM): 3% @ 90 μM
Nc1nc(N)c(SCc2ccccc2Cl)c(=O)[nH]1 [Compound 197] | 8.2 µM | 3.7 | 2.2 µM | 
COc1ccccc1Sc1c(N)nc(N)[nH]c1=O [Compound 198] | 263 µM | 45.3 | 5.8 µM | 
Nc1nc(N)c(Sc2nc(-c3ccccc3)cs2)c(=O)[nH]1 [Compound 199] | 53 µM | 4.3 | 12.2 µM | 
Nc1nc(N)c(SCc2ccc(Br)cc2)c(=O)[nH]1 [Compound 202] | 46.7 µM | 24.6 | 1.9 µM | 
